From patent US20210348120A1, “Polarised Three-Dimensional Cellular Aggregates” (CAMBRIDGE ENTERPRISE LIMITED, priority 2018, published 2021)

Test system: gastruloid cardiac portion
Experiment: Calcium imaging of the gastruloid cardiac portion
Type: cell-based, mouse
Details: 168 h gastruloids, 1 μM, light sheet imaging with Cal-520
Description: To image calcium fluxes, gastruloids were incubated for 1 h with 8 μM Cal-520 (AAT Bioquest) at 37° C., 5% CO2. Gastruloids were then transferred to fresh medium before imaging. Imaging was performed with a Light sheet Z1 microscope (Zeiss) equipped with an environmental chamber to maintain gastruloids at 37° C. and 5% CO2. For imaging, gastruloids were embedded in 1% low melt agarose and the chamber was filled with culture medium. Nifidepine (Sigma Aldrich, 10 μM) and Isoproterenol (Isoprenaline hydrochloride, Sigma 15627, 1 μM) were added with a syringe directly to the imaging chamber during acquisition. The analysis of calcium spikes was performed with the Fiji Stacks-plot Z-Axis profile plugin. The baseline intensity was normalized to the minimum value over 10 sec.

## CC(C)NCC(O)c1ccc(O)c(O)c1 (stereo not shown) [isoproterenol, Isoproterenol]
  calcium spiking frequency: increase in spiking frequency
